Results: PMC8064320, “Modulation of Glycinergic Neurotransmission may Contribute to the Analgesic Effects of Propacetamol” (Biomolecules, 2021)
pEC50: −log10 of the molar value.

Tests used:
Experiment in all cases: two-electrode voltage clamp, agonist-induced current in oocytes
Assay type in all cases: cell-based
Settings in all cases: read-out: Glycine Dose-Response Relationship / EC50, -50 mV, ND96 without Ca2+, pH 7.4, 21-23 °C
GlyRα1 = tested on: T1, GlyRα1
T1 construct: gene GLRA1; homomeric receptor (pentamer by known biology); plasmid pNKS2(GlyRα1); cRNA-injected Xenopus laevis oocytes
Source text: two-electrode voltage clamp, agonist-induced current in oocytes on GlyRα1

GlyRα2 = tested on: T2, GlyRα2
T2 construct: gene GLRA2; subunit expressed individually (homopentamer by known biology); plasmid pNKS2(GlyRα2); cRNA-injected Xenopus laevis oocytes
Source text: two-electrode voltage clamp, agonist-induced current in oocytes on GlyRα2

GlyRα3 = tested on: T3, GlyRα3
T3 construct: gene GLRA3; subunit expressed individually (homopentamer by known biology); plasmid pNKS2(GlyRα3); cRNA-injected Xenopus laevis oocytes
Source text: two-electrode voltage clamp, agonist-induced current in oocytes on GlyRα3

pEC50 (GlyRα1): 3.79 | pEC50 (GlyRα2): 3.49 | pEC50 (GlyRα3): 3.63
Structure (SMILES): NCC(=O)O [glycine]
